The assay addresses Genome polyprotein (dengue virus type 2, UniProt P29990). The format is functional, Thailand/16681/1984.

Molecules are shown by their SMILES. “And” between values parts separate entries of the source, which are not always exact repeats. Equal values may be shown once.

Sequence of Genome polyprotein (P29990 1346-1475 limits assumed): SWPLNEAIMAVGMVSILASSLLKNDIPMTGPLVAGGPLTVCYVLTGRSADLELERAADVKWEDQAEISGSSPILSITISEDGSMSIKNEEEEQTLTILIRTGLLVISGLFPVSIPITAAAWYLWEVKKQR
Sequence of Genome polyprotein (P29990 1476-2093 limits assumed): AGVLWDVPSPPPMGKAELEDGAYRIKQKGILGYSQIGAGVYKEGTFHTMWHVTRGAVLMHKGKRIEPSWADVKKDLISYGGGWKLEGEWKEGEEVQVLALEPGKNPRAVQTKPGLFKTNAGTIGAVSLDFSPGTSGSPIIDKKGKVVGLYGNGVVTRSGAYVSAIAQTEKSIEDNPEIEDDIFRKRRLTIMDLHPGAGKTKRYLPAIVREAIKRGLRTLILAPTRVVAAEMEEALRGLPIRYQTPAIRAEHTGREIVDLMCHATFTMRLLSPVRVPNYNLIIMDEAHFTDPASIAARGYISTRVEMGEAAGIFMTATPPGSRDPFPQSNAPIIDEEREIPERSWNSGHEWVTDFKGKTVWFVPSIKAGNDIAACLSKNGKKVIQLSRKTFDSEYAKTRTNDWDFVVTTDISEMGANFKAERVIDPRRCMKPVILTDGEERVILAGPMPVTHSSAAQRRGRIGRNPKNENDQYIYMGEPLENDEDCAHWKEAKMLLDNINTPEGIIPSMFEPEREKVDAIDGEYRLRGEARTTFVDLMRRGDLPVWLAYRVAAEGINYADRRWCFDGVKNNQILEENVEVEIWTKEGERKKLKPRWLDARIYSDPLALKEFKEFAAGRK

By IC50 is commonly meant the concentration that inhibits the measured activity by half. Low readings indicate inhibition by little substance, high ones a need for much substance. As to `CCC(=O)N1CCc2ccc(NS(=O)(=O)c3ccc(Cl)cc3C(=O)O)cc21`, the IC50 is > 99.5 µM.
In the case of `CCn1c(=O)c(N2C[C@@H]3CCO[C@]3(COC)C2)nc2ccccc21` it was > 99.5 µM; in that of `NC(=O)c1ccc(N2CC[C@@H](CO)C2)cc1`, > 99.5 µM; in that of `Cn1nc(NC(=O)[C@@H](NC(=O)OCc2ccccc2)c2ccc(OCc3ccccc3)cc2)c2c1CNC2`, > 99.5 µM.
In the case of `CN(C)CCc1ccc(CNC(=O)[C@@H](NC(=O)OCc2ccccc2)c2ccc(OCc3ccccc3)cc2)cc1` it was > 99.5 µM.
On to `Cc1cc(-c2cccc([C@@H](NC(=O)OCc3ccccc3)C(=O)Nc3cccc(CN)c3)c2)ccn1`, for which the IC50 is > 99.5 µM.
With `COc1cc(Br)ccc1[C@@H](NC(=O)OCc1ccccc1)C(=O)Nc1cccc(CN)c1`, half-maximal inhibition (IC50) required 83.9 µM.
Consider `CCc1cc(COc2ccc(S(=O)(=O)Nc3ccc(Cl)cc3C(=O)O)cc2)no1`, for which the IC50 was found to be 45.5 µM.
In the case of `CC1CCN(CCCCNC(=O)C2CCN(c3ccc(C=O)cc3)CC2)CC1` it was > 99.9 µM.
Take `FC(F)(F)c1nc(CNCc2cocn2)cs1`: the IC50 was > 99.5 µM.
Then `CN(C)[C@@H]1C[C@H](C(=O)Nc2cccc(CN)c2)CN(C(=O)OCc2ccccc2)C1`, with > 99.5 µM.
As for `NCc1cccc(NC(=O)[C@]2(NC(=O)OCc3ccccc3)COc3cc(Br)ccc32)c1`, the half-maximal inhibitory concentration (IC50) was > 99.5 µM.
For the molecule `CN(C)CCC(=O)N1CCC([C@@H](NC(=O)OCc2ccccc2)C(=O)Nc2cccc(CN)c2)CC1`, the IC50 was > 99.5 µM.
In the case of `CC[C@H]1CN2CCC[C@H]2CN1c1nc2ccccc2n(CC)c1=O` it was > 99.5 µM; in that of `NCc1cccc(CNC(=O)c2cc(Cl)cc(NC(=O)OCc3ccccc3)c2)c1`, > 99.5 µM; in that of `CCOc1ccc(F)cc1-c1cn(CC)c(=O)c(N2CC[C@@H](CO)C2)n1`, > 99.5 µM.
As for `CCn1ccnc(N2CC[C@H](c3ccc(OC)nc3)C2)c1=O`, the IC50 was > 99.5 µM.
For the molecule `O=Cc1ccc(N2CCC(C(=O)N3CCC(N4CCc5ccccc5C4)CC3)CC2)cc1`, the IC50 was > 99.9 µM.
In the case of `OC[C@H]1CCN(c2ccnc(C(F)F)c2)C1` it was > 99.5 µM; in that of `c1ccc(OC2CCN(Cc3c[nH]c4ccccc34)CC2)cc1`, > 99.5 µM; in that of `O=C(NC[C@H]1CCOC1)c1cc(Cl)ccc1NS(=O)(=O)c1ccc(Oc2ccccc2Cl)cc1`, 32.9 µM and 24 µM.
In the case of `c1cc(-c2cc(CN3CCC(c4cscn4)CC3)n[nH]2)ccn1`, the IC50 was > 99.5 µM.
Then `COc1cc(N[C@@H](C(=O)N2CCc3ccc(OC(F)(F)F)cc32)c2ccc(Cl)cc2)cc(OCCCC(=O)O)c1`, with 14.2 µM; and `NCc1cccc(NC(=O)[C@H](NC(=O)Cc2ccccc2)c2ccc(OCc3ccccc3)cc2)c1`, with 32.8 µM and 32.1 µM; and `O=C(Nc1cc(-c2cccnc2)ccn1)c1cc2n(c1)CCC2`, with > 99.5 µM.
Take `CC(C)(C)OC(=O)NCc1cccc(NC(=O)[C@@H](NC(=O)OCc2ccccc2)c2cccc(O)c2)c1`: the IC50 is > 99.5 µM.
On to `CCn1cc(-c2ccc(C(F)F)nc2)nc(N2CC[C@@H](CO)C2)c1=O`, for which the IC50 was > 99.5 µM.
`N=C(N)NCCc1ccc(OC(=O)Nc2ccccc2)cc1`: the IC50 is > 99.5 µM.
Then `O=C(N[C@H](C(=O)NCc1ccccc1CO)c1ccc(OCc2ccccc2)cc1)OCc1ccccc1`, with > 99.5 µM.
For the molecule `NCc1cccc(NC(=O)[C@H]2[C@H]3CCC[C@H]3[C@@H]2NC(=O)OCc2ccccc2)c1`, the IC50 was > 99.5 µM.
As for `Brc1cc(CNc2ccc3c(c2)CNC3)c2cc[nH]c2c1`, the IC50 was > 99.5 µM.
In the case of `O=C(N[C@H]1CCOC1)c1cc(Cl)ccc1NS(=O)(=O)c1ccc(Oc2ccccc2Cl)cc1` it was 67.4 µM; in that of `CC1(NS(=O)(=O)c2ccc(Cl)cc2C(=O)O)CCN(c2ccccc2)CC1`, > 99.5 µM.
With `CCn1cc(-c2ccc(S(C)(=O)=O)cc2)nc(N2CC[C@@H](CO)C2)c1=O`, the IC50 is > 99.5 µM.
In the case of `O=C(O)c1cc(Cl)ccc1S(=O)(=O)Nc1ccc(N2CCCCCC2)cc1` it was 55.2 µM.
For `c1csc(CSc2nnc(Cn3cncn3)o2)c1`, the IC50 was > 99.5 µM.
As to `CC(C)[C@H]1C(=O)O[C@@H]1C(=O)O`, the IC50 was > 99.5 µM.
Regarding `O=C(O)c1cc(Cl)ccc1S(=O)(=O)NC1CCN(S(=O)(=O)c2cccs2)CC1`, the IC50 is > 99.5 µM.
As to `CCn1c(=O)c(N2C[C@H]3COC[C@@]3(C)C2)nc2ccccc21`, the IC50 is > 99.5 µM.
`CCn1c(=O)c(N2CC[C@H](NC(=O)NC3CC3)C2)nc2ccccc21`: the IC50 is > 99.5 µM.
With `Cn1cc(-c2cccc([C@H](NC(=O)OCc3ccccc3)C(=O)Nc3cccc(CN)c3)c2)cn1`, the IC50 is > 99.5 µM.
As for `O=c1ccccn1-c1ncc(Br)cn1`, the IC50 is > 99.5 µM.
Regarding `CCn1ccnc(N2CC[C@H](c3ccc(C#N)cc3)C2)c1=O`, the IC50 is > 99.5 µM.
Turning to `NCCCOc1cc(-c2ccc(N)nc2)cc2c1COB2O`, the IC50 was > 99.5 µM.
In the case of `CCCC[C@H](NC(C)=O)C(=O)N[C@H](C(=O)NCc1ccc(CN)cc1)c1ccc(OCc2ccccc2)cc1` it was 77.3 µM; in that of `CN1CCc2ncc(NC(=O)[C@@H](NC(=O)OCc3ccccc3)c3ccc(OCc4ccccc4)cc3)cc2C1`, > 99.5 µM.
`NCc1cccc(NC(=O)[C@H](NC(=O)OCc2ccccc2)c2ccc(Br)c(Cl)c2)c1`: the IC50 is 11 µM and 8.42 µM and 6.79 µM and 9.88 µM and 12.5 µM and 8.05 µM.
Consider `c1ccc(COc2cccc3[nH]cc(CN4CCC(c5cscn5)CC4)c23)cc1`, for which the IC50 is > 99.5 µM.
Then `CCn1cc(-c2cn(C)nc2C(F)(F)F)nc(N2CC[C@@H](CO)C2)c1=O`, with > 99.5 µM; and `CCc1ncc(CN2CCC(c3nc4ccccc4s3)CC2)[nH]1`, with > 99.5 µM; and `O=C1C[C@H]2CN(C(=O)Nc3ccc4c(c3)CNC4)CC[C@H]2N1`, with > 99.5 µM.
Regarding `Clc1ccc2ncn(Cc3ccc4c(c3)CNC4)c2c1`, the IC50 is > 99.5 µM.
The molecule `COc1cc(C(=O)O)c(S(=O)(=O)Nc2ccc(Oc3ccccc3Cl)cc2)cc1F` gave a concentration for half-maximal inhibition (IC50) of 30.3 µM. This lies in the double-digit micromolar range.
`Cc1n[nH]c2nc(Cl)cc(C(=O)Nc3ccc4c(c3)CNC4)c12`: the IC50 is > 99.5 µM.
Turning to `NCC1(NC(=O)[C@H](NC(=O)OCc2ccccc2)c2ccc(OCc3ccccc3)cc2)CCCCC1`, the IC50 was > 99.5 µM.
As to `C[C@H]1CC[C@@](Cc2nc3ccccc3[nH]2)(C(=O)Nc2cccc(CN)c2)CC1`, the IC50 was > 99.5 µM.
Consider `COC(=O)[C@H](C)n1cc2c(C(=O)Nc3ccc4c(c3)CNC4)cc(Cl)cc2n1`, for which the IC50 was > 99.5 µM.
Then `O=Cc1ccc(N2CCC(C(=O)NCCc3ccc(O)c(O)c3)CC2)cc1`, with 35 µM.
In the case of `COc1ccc(S(=O)(=O)Nc2cc(F)c(Cl)cc2C(=O)NCC(C)C)cc1` it was 97 µM; in that of `O=C(N[C@@H](C(=O)NCC1CCNCC1)c1ccc(OCc2ccccc2)cc1)OCc1ccccc1`, > 99.5 µM.
For the molecule `O=C(O)Cc1cc(NS(=O)(=O)c2ccc(Oc3ccccc3Cl)cc2)ccc1Cl`, half-maximal inhibition (IC50) required 96.1 µM.
As to `CCn1ccnc(N2CC[C@@H](CO)C2)c1=O`, the IC50 is > 99.5 µM.
In the case of `NCc1cccc(NC(=O)[C@@H]2Cc3ccc(OCc4ccccc4)cc3CN2C(=O)OCc2ccccc2)c1` it was 86.7 µM; in that of `CN1CCc2nc(NC(=O)c3cc(Cl)cc(NC(=O)OCc4ccccc4)c3)sc2C1`, > 99.5 µM; in that of `NC(=O)C1(N2CCCCC2)CCN(C(=O)C2CCN(c3ccc(C=O)cc3)CC2)CC1`, > 24.9 µM.
`CNC(=O)c1cc(C#N)ccc1NS(=O)(=O)c1ccc(Oc2ccccc2Cl)cc1`: inhibition was half-maximal at 44.8 µM (IC50). This counts as double-digit micromolar.
